Drawing on article PMC6437697 (Journal of Medicinal Chemistry, 2019), this text covers remaining binding for three compounds.

Holding throughout (assay): KINOMEscan
Assay type in all cases: binding
What all share (conditions): read-out: % control activity remaining

One test has as its target T1, BRSK1 (Homo sapiens, UniProt Q8TDC3).
T1 construct: purchased Eurofins DiscoverX KINOMEscan
T1 sequence (Q8TDC3 1-778): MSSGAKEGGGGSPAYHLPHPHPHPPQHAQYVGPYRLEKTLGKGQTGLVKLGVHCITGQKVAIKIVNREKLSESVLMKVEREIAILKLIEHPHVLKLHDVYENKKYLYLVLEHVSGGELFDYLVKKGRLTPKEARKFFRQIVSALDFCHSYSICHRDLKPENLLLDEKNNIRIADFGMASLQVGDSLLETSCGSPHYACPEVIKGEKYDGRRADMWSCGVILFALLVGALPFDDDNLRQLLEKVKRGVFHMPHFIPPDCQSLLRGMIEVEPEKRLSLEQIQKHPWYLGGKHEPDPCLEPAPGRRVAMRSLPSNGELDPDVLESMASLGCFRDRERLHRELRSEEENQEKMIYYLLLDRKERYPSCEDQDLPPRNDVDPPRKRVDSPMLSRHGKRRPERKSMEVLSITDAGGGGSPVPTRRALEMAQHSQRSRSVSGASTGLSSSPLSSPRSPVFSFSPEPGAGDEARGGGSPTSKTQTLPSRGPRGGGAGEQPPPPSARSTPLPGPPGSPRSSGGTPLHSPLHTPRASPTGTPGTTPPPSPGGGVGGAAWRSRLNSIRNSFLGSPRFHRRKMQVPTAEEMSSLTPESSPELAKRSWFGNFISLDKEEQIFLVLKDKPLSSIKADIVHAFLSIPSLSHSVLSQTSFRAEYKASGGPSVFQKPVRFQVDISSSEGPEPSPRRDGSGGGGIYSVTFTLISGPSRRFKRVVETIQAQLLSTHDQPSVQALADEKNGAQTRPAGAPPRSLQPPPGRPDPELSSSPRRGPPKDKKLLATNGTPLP

Another test deals with T2, PDPK1 (Homo sapiens, UniProt O15530).
T2 construct: purchased Eurofins DiscoverX KINOMEscan
T2 sequence (O15530 1-556): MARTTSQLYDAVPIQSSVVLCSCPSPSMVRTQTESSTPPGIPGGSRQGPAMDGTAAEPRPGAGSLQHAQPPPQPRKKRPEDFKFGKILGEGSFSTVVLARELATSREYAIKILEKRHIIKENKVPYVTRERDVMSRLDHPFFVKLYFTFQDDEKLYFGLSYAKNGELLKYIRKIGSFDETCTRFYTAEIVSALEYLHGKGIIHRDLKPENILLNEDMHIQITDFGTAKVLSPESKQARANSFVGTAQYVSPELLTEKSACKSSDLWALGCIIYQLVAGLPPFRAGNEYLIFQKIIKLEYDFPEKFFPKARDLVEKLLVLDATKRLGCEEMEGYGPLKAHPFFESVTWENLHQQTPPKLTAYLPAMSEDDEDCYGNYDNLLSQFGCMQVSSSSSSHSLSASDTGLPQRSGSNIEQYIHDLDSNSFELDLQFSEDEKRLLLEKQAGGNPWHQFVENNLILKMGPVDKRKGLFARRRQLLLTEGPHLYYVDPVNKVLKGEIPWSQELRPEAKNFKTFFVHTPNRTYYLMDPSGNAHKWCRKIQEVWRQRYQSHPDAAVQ

In the next test the target is T3, NEK10 (Homo sapiens, UniProt Q6ZWH5).
T3 construct: purchased Eurofins DiscoverX KINOMEscan
T3 sequence (Q6ZWH5 1-1172): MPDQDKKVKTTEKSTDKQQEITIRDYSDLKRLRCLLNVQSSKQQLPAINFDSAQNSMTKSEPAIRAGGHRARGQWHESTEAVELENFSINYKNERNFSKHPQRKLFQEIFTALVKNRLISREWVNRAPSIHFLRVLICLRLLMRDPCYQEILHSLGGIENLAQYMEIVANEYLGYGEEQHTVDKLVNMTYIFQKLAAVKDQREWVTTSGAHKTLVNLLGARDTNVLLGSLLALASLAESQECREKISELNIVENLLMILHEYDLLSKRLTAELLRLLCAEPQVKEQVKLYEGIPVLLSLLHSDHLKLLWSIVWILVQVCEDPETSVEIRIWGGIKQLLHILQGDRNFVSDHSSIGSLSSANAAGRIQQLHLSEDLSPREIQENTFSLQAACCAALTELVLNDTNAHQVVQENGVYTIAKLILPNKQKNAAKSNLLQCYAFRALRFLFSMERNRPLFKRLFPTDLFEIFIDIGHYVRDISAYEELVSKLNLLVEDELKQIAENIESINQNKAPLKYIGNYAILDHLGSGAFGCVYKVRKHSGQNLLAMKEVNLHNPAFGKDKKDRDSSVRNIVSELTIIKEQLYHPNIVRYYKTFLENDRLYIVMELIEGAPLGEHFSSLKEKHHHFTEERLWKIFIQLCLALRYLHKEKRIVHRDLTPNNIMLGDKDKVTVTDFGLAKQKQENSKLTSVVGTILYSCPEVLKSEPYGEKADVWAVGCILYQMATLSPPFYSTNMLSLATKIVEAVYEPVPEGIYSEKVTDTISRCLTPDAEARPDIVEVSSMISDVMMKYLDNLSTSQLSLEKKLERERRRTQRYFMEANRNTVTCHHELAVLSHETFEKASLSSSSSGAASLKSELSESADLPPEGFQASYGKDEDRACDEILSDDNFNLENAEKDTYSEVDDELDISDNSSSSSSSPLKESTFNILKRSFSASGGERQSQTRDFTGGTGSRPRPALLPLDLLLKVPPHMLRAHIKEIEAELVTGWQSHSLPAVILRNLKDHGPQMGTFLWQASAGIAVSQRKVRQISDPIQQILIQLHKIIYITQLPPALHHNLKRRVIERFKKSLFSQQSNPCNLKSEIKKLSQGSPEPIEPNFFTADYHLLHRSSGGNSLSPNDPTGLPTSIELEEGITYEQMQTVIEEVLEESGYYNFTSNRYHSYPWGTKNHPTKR

Consider `Clc1cc(NCC2CC2)c2ncc(-c3ccc4[nH]ncc4c3)n2n1` [compound 2, 6-Chloro-N-(cyclopropylmethyl)-3-(1H-indazol-5-yl)imidazo[1,2-b]pyridazin-8-amine], for which the remaining binding at 1 µM on BRSK1 was determined as 96%; on PDPK1, 88%; on NEK10 it was 92%.
The matching figures for `O=C(CN1CCOCC1)N[C@H]1CC[C@H](Nc2cc(Cl)nn3c(-c4ccc5[nH]ncc5c4)cnc23)CC1` [compound 26]: 86%, 100% and 72%.
For `CN1CCC(CNc2cc(Cl)nn3c(-c4cc5nc(Nc6ccccc6)[nH]c5cc4F)cnc23)CC1` [compound 31, 6-Chloro-3-(6-fluoro-2-(phenylamino)-1H-benzo[d]imidazol-5-yl)-N-((1-methylpiperidin-4-yl)methyl)imidazo[1,2-b]pyridazin-8-amine] the same measures were 100%, 100% and 100%.
